Experimental data as given in patent US6613747B2, “6-O-carbamoyl ketolide antibacterials” (Ortho-McNeil Pharmaceutical, Inc., priority 2000, dated 2003).
Converted amounts (≈) assume the structure as drawn.

Legend:
Experiment in all cases: MIC, microdilution broth method (NCCLS)
Assay type in all cases: cell-based
E. faecalis ATCC29212 = settings: C: E. faecalis ATCC29212, 35° C., 16-20 hours
Procedure, shortened: (§1)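 Two-fold serial compound dilutions in cation-adjusted Mueller-Hinton broth were inoculated at approximately 5×10^4 CFU/well from actively growing cultures, incubated at 35° C. for 16-20 hours, and growth was compared with compound-free control wells to give the MIC.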

S. pneumoniae ATCC49619 = settings: D: S. pneumoniae ATCC49619, 35° C., 16-20 hours
Procedure, shortened: as §1

S. aureus ATCC29213 = settings: B: S. aureus ATCC29213, 35° C., 16-20 hours
Procedure, shortened: as §1

E. coli OC2605 = settings: A: E. coli OC2605, 35° C., 16-20 hours
Procedure, shortened: as §1

H. influenzae ATCC49247 = settings: E: H. influenzae ATCC49247, 35° C., 16-20 hours
Procedure, shortened: as §1

MIC (E. faecalis ATCC29212) [µg/mL]	MIC (S. pneumoniae ATCC49619)	MIC (S. aureus ATCC29213) [µg/mL]	MIC (E. coli OC2605) [µg/mL]	MIC (H. influenzae ATCC49247) [µg/mL]	SMILES
0.12 (≈ 0.145 µM)	0.06 µg/mL (≈ 0.0725 µM)	2 (≈ 2.42 µM)	>16	8 (≈ 9.66 µM)	CC[C@H]1OC(=O)[C@H](C)C(=O)[C@H](C)[C@@H](O[C@@H]2O[C@H](C)C[C@H](N(C)C)[C@H]2O)[C@](C)(OC(=O)NCc2ccc(-n3cccn3)c(OC)c2)C[C@@H](C)C(=O)[C@H](C)[C@H]2NC(=O)O[C@@]21C [Compound 81]
0.06 (≈ 0.073 µM)	0.03 µg/mL (≈ 0.0365 µM)	0.25 (≈ 0.304 µM)	>16	4 (≈ 4.87 µM)	CC[C@H]1OC(=O)[C@H](C)C(=O)[C@H](C)[C@@H](O[C@@H]2O[C@H](C)C[C@H](N(C)C)[C@H]2O)[C@](C)(OC(=O)NCC#Cc2ccc(-n3cccn3)cc2)C[C@@H](C)C(=O)[C@H](C)[C@H]2NC(=O)O[C@@]21C [Compound 82]
0.25 (≈ 0.303 µM)	0.06 µg/mL (≈ 0.0726 µM)	2 (≈ 2.42 µM)	>16	8 (≈ 9.69 µM)	CC[C@H]1OC(=O)[C@H](C)C(=O)[C@H](C)[C@@H](O[C@@H]2O[C@H](C)C[C@H](N(C)C)[C@H]2O)[C@](C)(OC(=O)NCc2ccc(Oc3ncccn3)cc2)C[C@@H](C)C(=O)[C@H](C)[C@H]2NC(=O)O[C@@]21C [Compound 83]
0.12 (≈ 0.141 µM)	0.06 µg/mL (≈ 0.0703 µM)	0.25 (≈ 0.293 µM)	>16	4 (≈ 4.68 µM)	CC[C@H]1OC(=O)[C@H](C)C(=O)[C@H](C)[C@@H](O[C@@H]2O[C@H](C)C[C@H](N(C)C)[C@H]2O)[C@](C)(OC(=O)NC/C=C/c2ccc(-n3cccn3)c(OC)c2)C[C@@H](C)C(=O)[C@H](C)[C@H]2NC(=O)O[C@@]21C [Compound 84]
0.25 (≈ 0.294 µM)	0.12 µg/mL (≈ 0.141 µM)	1 (≈ 1.18 µM)	>16	>16	CC[C@H]1OC(=O)[C@H](C)C(=O)[C@H](C)[C@@H](O[C@@H]2O[C@H](C)C[C@H](N(C)C)[C@H]2O)[C@](C)(OC(=O)N(C)C/C=C/c2ccc(-c3ncccn3)cc2)C[C@@H](C)C(=O)[C@H](C)[C@H]2NC(=O)O[C@@]21C [Compound 85]
0.12 (≈ 0.141 µM)	0.06 µg/mL (≈ 0.0704 µM)	0.5 (≈ 0.587 µM)	>16	8 (≈ 9.39 µM)	CC[C@H]1OC(=O)[C@H](C)C(=O)[C@H](C)[C@@H](O[C@@H]2O[C@H](C)C[C@H](N(C)C)[C@H]2O)[C@](C)(OC(=O)NC/C=C/c2ccc(Oc3ncccn3)cc2)C[C@@H](C)C(=O)[C@H](C)[C@H]2NC(=O)O[C@@]21C [Compound 86]
0.06 (≈ 0.0725 µM)	0.03 µg/mL (≈ 0.0362 µM)	0.25 (≈ 0.302 µM)	16 (≈ 19.3 µM)	4 (≈ 4.83 µM)	CC[C@H]1OC(=O)[C@H](C)C(=O)[C@H](C)[C@@H](O[C@@H]2O[C@H](C)C[C@H](N(C)C)[C@H]2O)[C@](C)(OC(=O)NCc2ccc(-c3ncccn3)cc2F)C[C@@H](C)C(=O)[C@H](C)[C@H]2NC(=O)O[C@@]21C [Compound 87]
0.06 (≈ 0.0703 µM)	0.06 µg/mL (≈ 0.0703 µM)	0.25 (≈ 0.293 µM)	16 (≈ 18.7 µM)	8 (≈ 9.37 µM)	CC[C@H]1OC(=O)[C@H](C)C(=O)[C@H](C)[C@@H](O[C@@H]2O[C@H](C)C[C@H](N(C)C)[C@H]2O)[C@](C)(OC(=O)NC/C=C/c2ccc(-c3ncccn3)cc2F)C[C@@H](C)C(=O)[C@H](C)[C@H]2NC(=O)O[C@@]21C [Compound 88]
0.25 (≈ 0.293 µM)	0.06 µg/mL (≈ 0.0703 µM)	0.5 (≈ 0.585 µM)	16 (≈ 18.7 µM)	8 (≈ 9.37 µM)	CCC1OC(=O)C(C)(F)C(=O)C(C)C(OC2OC(C)CC(N(C)C)C2O)C(C)(OC(=O)NCC=Cc2ccc(-c3ncccn3)cc2)CC(C)C(=O)C(C)C2NC(=O)OC12C (stereo not drawn) [Compound 89]
0.06 (≈ 0.0726 µM)	0.03 µg/mL (≈ 0.0363 µM)	0.25 (≈ 0.302 µM)	8 (≈ 9.67 µM)	4 (≈ 4.84 µM)	CCC1OC(=O)C(C)(F)C(=O)C(C)C(OC2OC(C)CC(N(C)C)C2O)C(C)(OC(=O)NCC=Cc2ccc3ncccc3c2)CC(C)C(=O)C(C)C2NC(=O)OC12C (stereo not drawn) [Compound 90]
0.12 (≈ 0.143 µM)	0.06 µg/mL (≈ 0.0713 µM)	0.25 (≈ 0.297 µM)	16 (≈ 19 µM)	4 (≈ 4.75 µM)	CCC1OC(=O)C(C)(F)C(=O)C(C)C(OC2OC(C)CC(N(C)C)C2O)C(C)(OC(=O)NCC=Cc2ccc(-n3cccn3)cc2)CC(C)C(=O)C(C)C2NC(=O)OC12C (stereo not drawn) [Compound 91]
0.12 (≈ 0.145 µM)	0.03 µg/mL (≈ 0.0363 µM)	0.25 (≈ 0.303 µM)	16 (≈ 19.4 µM)	2 (≈ 2.42 µM)	CC[C@H]1OC(=O)[C@H](C)C(=O)[C@H](C)[C@@H](O[C@@H]2O[C@H](C)C[C@H](N(C)C)[C@H]2O)[C@](C)(OC(=O)NC/C=C/c2cn(-c3ncccn3)cn2)C[C@@H](C)C(=O)[C@H](C)[C@H]2NC(=O)O[C@@]21C [Compound 92]
0.06 (≈ 0.075 µM)	≦0.015 μg/mL	0.5 (≈ 0.625 µM)	16 (≈ 20 µM)	1 (≈ 1.25 µM)	CC[C@H]1OC(=O)[C@H](C)C(=O)[C@H](C)[C@@H](O[C@@H]2O[C@H](C)C[C@H](N(C)C)[C@H]2O)[C@](C)(OC(=O)NCc2cn(-c3ncccn3)cn2)C[C@@H](C)C(=O)[C@H](C)[C@H]2NC(=O)O[C@@]21C [Compound 93]
0.12 (≈ 0.137 µM)	0.06 µg/mL (≈ 0.0683 µM)	0.25 (≈ 0.285 µM)	>16	2 (≈ 2.28 µM)	CC[C@H]1OC(=O)[C@H](C)C(=O)[C@H](C)[C@@H](O[C@@H]2O[C@H](C)C[C@H](N(C)C)[C@H]2OC(C)=O)[C@](C)(OC(=O)NC/C=C/c2ccc(-c3ncccn3)cc2)C[C@@H](C)C(=O)[C@H](C)[C@H]2NC(=O)O[C@@]21C [Compound 94]
0.12 (≈ 0.144 µM)	0.03 µg/mL (≈ 0.0359 µM)	0.25 (≈ 0.299 µM)	4 (≈ 4.78 µM)	1 (≈ 1.2 µM)	CCC1OC(=O)C(C)C(=O)C(C)C(OC2OC(C)CC(N(C)C)C2O)C(C)(OC(=O)NCC=Cc2ccc(-c3cccnn3)cc2)CC(C)C(=O)C(C)C2NC(=O)OC12C (stereo not drawn) [Compound 96]
0.06 (≈ 0.0741 µM)	0.03 µg/mL (≈ 0.037 µM)	0.5 (≈ 0.617 µM)	16 (≈ 19.8 µM)	2 (≈ 2.47 µM)	CC[C@H]1OC(=O)[C@H](C)C(=O)[C@H](C)[C@@H](O[C@@H]2O[C@H](C)C[C@H](N(C)C)[C@H]2O)[C@](C)(OC(=O)NCc2ccc(-c3cccnn3)cc2)C[C@@H](C)C(=O)[C@H](C)[C@H]2NC(=O)O[C@@]21C [Compound 97]
0.12 (≈ 0.141 µM)	0.03 µg/mL (≈ 0.0351 µM)	0.25 (≈ 0.293 µM)	8 (≈ 9.37 µM)	2 (≈ 2.34 µM)	CCC1OC(=O)C(C)(F)C(=O)C(C)C(OC2OC(C)CC(N(C)C)C2O)C(C)(OC(=O)NCC=Cc2ccc(-c3cnccn3)cc2)CC(C)C(=O)C(C)C2NC(=O)OC12C (stereo not drawn) [Compound 101]
0.12 (≈ 0.141 µM)	0.06 µg/mL (≈ 0.0703 µM)	0.25 (≈ 0.293 µM)	>16	4 (≈ 4.68 µM)	CC[C@H]1OC(=O)[C@H](C)C(=O)[C@H](C)[C@@H](O[C@@H]2O[C@H](C)C[C@H](N(C)C)[C@H]2O)[C@](C)(OC(=O)NCCOCc2ccc(-c3ncccn3)cc2)C[C@@H](C)C(=O)[C@H](C)[C@H]2NC(=O)O[C@@]21C [Compound 107]
0.25 (≈ 0.287 µM)	0.06 µg/mL (≈ 0.0688 µM)	0.5 (≈ 0.573 µM)	>16	4 (≈ 4.59 µM)	CCC1OC(=O)C(C)(F)C(=O)C(C)C(OC2OC(C)CC(N(C)C)C2O)C(C)(OC(=O)NCCOCc2ccc(-c3ncccn3)cc2)CC(C)C(=O)C(C)C2NC(=O)OC12C (stereo not drawn) [Compound 108]
2 (≈ 2.45 µM)	0.25 µg/mL (≈ 0.307 µM)	8 (≈ 9.82 µM)	>16	16 (≈ 19.6 µM)	CC[C@H]1OC(=O)[C@H](C)C(=O)[C@H](C)[C@@H](O[C@@H]2O[C@H](C)C[C@H](N(C)C)[C@H]2O)[C@](C)(OC(=O)NCCN2C(=O)c3ccccc3C2=O)C[C@@H](C)C(=O)[C@H](C)[C@H]2NC(=O)O[C@@]21C [Compound 109]
8 (≈ 11.7 µM)	1 µg/mL (≈ 1.46 µM)	16 (≈ 23.4 µM)	>16	16 (≈ 23.4 µM)	CC[C@H]1OC(=O)[C@H](C)C(=O)[C@H](C)[C@@H](O[C@@H]2O[C@H](C)C[C@H](N(C)C)[C@H]2O)[C@](C)(OC(=O)NCCN)C[C@@H](C)C(=O)[C@H](C)[C@H]2NC(=O)O[C@@]21C [Compound 110]
2 (≈ 2.53 µM)	0.5 µg/mL (≈ 0.633 µM)	16 (≈ 20.3 µM)	>16	16 (≈ 20.3 µM)	CC[C@H]1OC(=O)[C@H](C)C(=O)[C@H](C)[C@@H](O[C@@H]2O[C@H](C)C[C@H](N(C)C)[C@H]2O)[C@](C)(OC(=O)NCCNC(=O)c2cccnc2)C[C@@H](C)C(=O)[C@H](C)[C@H]2NC(=O)O[C@@]21C [Compound 112]

SMILES	MIC (E. faecalis ATCC29212) [µg/mL]	MIC (S. pneumoniae ATCC49619)	MIC (S. aureus ATCC29213) [µg/mL]	MIC (E. coli OC2605) [µg/mL]	MIC (H. influenzae ATCC49247) [µg/mL]
CCC1OC(=O)C(C)(O)C(=O)C(C)C(OC2OC(C)CC(N(C)C)C2O)C(C)(OC(=O)NCC=Cc2ccc(-c3cnccn3)cc2)CC(C)C(=O)C(C)C2NC(=O)OC12C (stereo not drawn) [Compound 98]	0.25 (≈ 0.293 µM)	0.03 µg/mL (≈ 0.0352 µM)	0.5 (≈ 0.587 µM)	>16	4 (≈ 4.69 µM)
CC[C@H]1OC(=O)[C@H](C)C(=O)[C@H](C)[C@@H](O[C@@H]2O[C@H](C)C[C@H](N(C)C)[C@H]2O)[C@](C)(OC(=O)NCCNC(=O)c2ccc(-c3ccccc3)cc2)C[C@@H](C)C(=O)[C@H](C)[C@H]2NC(=O)O[C@@]21C [Compound 111]	0.5 (≈ 0.578 µM)	0.06 µg/mL (≈ 0.0694 µM)	1 (≈ 1.16 µM)	>16	4 (≈ 4.62 µM)
